{"source": "patent US20250177353A1", "about": "(priority 2021, published 2025)", "key": {"[1]": {"test": "MAD study: 2,4-dinitrophenol pharmacokinetics (accumulation, steady state)", "type": "in vivo, human", "conditions": "MAD cohort 1", "description": "A double-blind, sponsor-open, placebo-controlled, phase I study of the safety, pharmacokinetics and pharmacodynamics of multiple ascending doses of Compound 1 in high MBI volunteers was conducted. The first cohort of 10 healthy high body mass index (BMI) subjects has completed dosing at 200 mg Compound 1. Two more cohorts are also planned at doses of 400 and 550 mg QD.\nWith once daily dosing, significant accumulation of 2,4-dinitrophenol is anticipated at steady state."}, "[2]": {"conditions": "human, in vivo, 500 mg"}, "[3]": {"conditions": "cited from earlier work"}, "[4]": {"test": "SAD phase I study: plasma pharmacokinetics of 2,4-dinitrophenol after Compound 1 (Table 3)", "type": "in vivo, human", "conditions": "for Vd/F: 500 mg, read-out: Vz/F, Median", "description": "A double-blind, placebo-controlled, phase I study of the safety and pharmacokinetics of single ascending doses of compound 1 in healthy volunteers was conducted. The volunteers were orally administered Compound 1 in doses ranging from 30 mg once daily (QD) to 1400 mg QD in a total of 67 subjects (50 active/17 placebo) across 8 cohorts.\nScreening procedures occurred on Days -28 to -3. For all Cohorts except Cohort 4 (Fed/Fasted), subjects were admitted to the clinical research unit for up to 4 days. […] Following completion of all safety assessments and blood draws for PK analyses, subjects were discharged on Day 3. The Fed/Fasted cohort remained in the unit and were discharged on Day 7.\nDouble-blind dosing occurred in cohorts 1 through 8. In these cohorts, six subjects received Compound 1 and two received matching placebo. Doses escalated in the following sequence: 30, 100, 200, 500, 1400, 1050 and 600 mg. • Cohort 4 crossed-over to a fed state (50% fat meal) administration after pharmacokinetics and an inpatient washout had occurred for 72 hours after the first dose with a final dose.\nSubjects were admitted to the clinical research unit on Day 1. […] Blood draws for assessment of PK parameters occurred per schedule of assessments. IC were taken per schedule of assessments. Subjects were released on Day 3 following completion of all blood draws and safety assessments. The Fed/Fasted cohort remained in the unit and was discharged on Day 7.\nCompound 1 or matching placebo was administered orally as a single dose. All subjects except the fed cohort, were dosed in the morning after an 8-hour fast and remained in a semi-reclined position for 1 hour and fasting for 4 hours post-administration. Capsules were swallowed with 240 mL (8 fluid ounces) of room temperature water.\nCohort 4 was a crossover food effect analysis. Subjects enrolled in Cohort 4 were dosed 30 minutes following the beginning of a standardized (consisting of 50% fat) meal (following a 10-hour fast) to evaluate for food effects. The study drug was administered with room temperature 240 mL (8 fluid ounces) of water."}, "[5]": {"conditions": "single dose 30 mg Compound 1, Fasted"}, "[6]": {"conditions": "single dose 100 mg Compound 1, Fasted"}, "[7]": {"conditions": "single dose 200 mg Compound 1, Fasted"}, "[8]": {"conditions": "single dose 500 mg Compound 1, Fasted"}, "[9]": {"conditions": "single dose 500 mg Compound 1, Fed"}, "[10]": {"conditions": "single dose 600 mg Compound 1, Fasted, Micronized"}, "[11]": {"conditions": "single dose 1050 mg Compound 1, Fasted"}, "[12]": {"conditions": "single dose 1050 mg Compound 1, Fasted, Micronized"}, "[13]": {"conditions": "single dose 1400 mg Compound 1, Fasted, Micronized"}}, "note": "Like-named read-outs stand apart in the source and are kept apart here."}
{"molecule": "O=[N+]([O-])c1ccc(O)c([N+](=O)[O-])c1", "note": "[2,4-dinitrophenol]", "values": [{"measurement": "dose accumulation factor", "setting": "[1]; Compound 1 200 mg QD for 14 days", "result": "approximately 3.5 fold"}, {"measurement": "time to steady-state", "setting": "[1]; Compound 1 200 mg daily dosing", "result": 7, "unit": "days"}, {"measurement": "AUC increase under fed conditions relative to fasted conditions", "setting": "[2]", "result": "> 2.0", "unit": "fold"}, {"measurement": "Cmax increase under fed conditions relative to fasted conditions", "setting": "[2]", "result": "> 1.8", "unit": "fold"}, {"measurement": "increase in RMR", "setting": "[3]; 2,4-dinitrophenol once daily 1-3 months (Tainter, Simkins)", "result": "20-40%"}, {"measurement": "weight loss", "setting": "[3]; 2,4-dinitrophenol once daily 1-3 months", "result": "1.4-2.1 lbs./week"}, {"measurement": "tolerability", "setting": "[3]; 2,4-dinitrophenol once daily over 1-3 months", "result": "well tolerated"}, {"measurement": "2,4-dinitrophenol concentrations associated with adverse increases in body temperatures", "setting": "[3]; humans (Zhao 2015)", "result": "greater than 28,000 ng/ml"}, {"measurement": "Vd/F", "setting": "[4]; human, oral, single dose 500 mg Compound 1, Fasted", "result": 735, "unit": "L"}, {"measurement": "Vd/F", "setting": "[4]; human, oral, single dose 500 mg Compound 1, Fed", "result": 269, "unit": "L"}, {"measurement": "AUC(0-inf)", "setting": "[4]; human, oral, single dose 500 mg Compound 1, Fed, read-out: AUCinf, Median", "result": 83800, "unit": "ng·h/mL"}, {"measurement": "half-life", "setting": "[4]; human, oral, single dose 500 mg Compound 1, Fed, read-out: t1/2, Median (converted)", "result": 31.2, "unit": "h"}, {"measurement": "AUC0/24 h, Geometric Mean", "setting": "[4]; [5]", "result": 1440, "unit": "ng·h/mL"}, {"measurement": "AUC0/24 h, Mean (SD)", "setting": "[4]; [5]", "result": "1500 (448) h*ng/ML"}, {"measurement": "AUC0/24 h, Median", "setting": "[4]; [5]", "result": 1500, "unit": "ng·h/mL"}, {"measurement": "CL/F, Geometric Mean", "setting": "[4]; [5]", "result": 7.44, "unit": "L/h"}, {"measurement": "CL/F, Mean (SD)", "setting": "[4]; [5]", "result": "8.04 (3.39) L/h"}, {"measurement": "CL/F, Median", "setting": "[4]; [5]", "result": 9.84, "unit": "L/h"}, {"measurement": "AUC0/24 h, Geometric Mean", "setting": "[4]; [6]", "result": 4660, "unit": "ng·h/mL"}, {"measurement": "AUC0/24 h, Mean (SD)", "setting": "[4]; [6]", "result": "4710 (711) h*ng/ML"}, {"measurement": "AUC0/24 h, Median", "setting": "[4]; [6]", "result": 4820, "unit": "ng·h/mL"}, {"measurement": "CL/F, Geometric Mean", "setting": "[4]; [6]", "result": 7.61, "unit": "L/h"}, {"measurement": "CL/F, Mean (SD)", "setting": "[4]; [6]", "result": "7.75 (1.70) L/h"}, {"measurement": "CL/F, Median", "setting": "[4]; [6]", "result": 7.87, "unit": "L/h"}, {"measurement": "AUC0/24 h, Geometric Mean", "setting": "[4]; [7]", "result": 11100, "unit": "ng·h/mL"}, {"measurement": "AUC0/24 h, Mean (SD)", "setting": "[4]; [7]", "result": "11200 (1970) h*ng/ML"}, {"measurement": "AUC0/24 h, Median", "setting": "[4]; [7]", "result": 10900, "unit": "ng·h/mL"}, {"measurement": "CL/F, Geometric Mean", "setting": "[4]; [7]", "result": 6.12, "unit": "L/h"}, {"measurement": "CL/F, Mean (SD)", "setting": "[4]; [7]", "result": "6.35 (1.79) L/h"}, {"measurement": "CL/F, Median", "setting": "[4]; [7]", "result": 7.19, "unit": "L/h"}, {"measurement": "AUC%extrap, Median", "setting": "[4]; [8]", "result": 12.2, "unit": "%"}, {"measurement": "AUCinf/D, Median", "setting": "[4]; [8]", "result": 62.4, "unit": "ng·h/mL/mg"}, {"measurement": "CL/F, Geometric Mean", "setting": "[4]; [8]", "result": 16.5, "unit": "L/h"}, {"measurement": "CL/F, Mean (SD)", "setting": "[4]; [8]", "result": "17.7 (7.65) L/h"}, {"measurement": "CL/F, Median", "setting": "[4]; [8]", "result": 16.4, "unit": "L/h"}, {"measurement": "AUC%extrap, Median", "setting": "[4]; [9]", "result": 6.56, "unit": "%"}, {"measurement": "AUCinf/D, Median", "setting": "[4]; [9]", "result": 168, "unit": "ng·h/mL/mg"}, {"measurement": "CL/F, Median", "setting": "[4]; [9]", "result": 5.97, "unit": "L/h"}, {"measurement": "λz, Median", "setting": "[4]; [9]", "result": 0.0222, "unit": "h⁻¹"}, {"measurement": "CL/F, Geometric Mean", "setting": "[4]; [10]", "result": 2.80, "unit": "L/h"}, {"measurement": "CL/F, Mean (SD)", "setting": "[4]; [10]", "result": "3.20 (1.62) L/h"}, {"measurement": "CL/F, Median", "setting": "[4]; [10]", "result": 2.74, "unit": "L/h"}, {"measurement": "CL/F, Geometric Mean", "setting": "[4]; [11]", "result": 15.2, "unit": "L/h"}, {"measurement": "CL/F, Mean (SD)", "setting": "[4]; [11]", "result": "16.8 (7.60) L/h"}, {"measurement": "CL/F, Median", "setting": "[4]; [11]", "result": 18.3, "unit": "L/h"}, {"measurement": "CL/F, Geometric Mean", "setting": "[4]; [12]", "result": 2.20, "unit": "L/h"}, {"measurement": "CL/F, Mean (SD)", "setting": "[4]; [12]", "result": "2.33 (0.715) L/h"}, {"measurement": "CL/F, Median", "setting": "[4]; [12]", "result": 2.50, "unit": "L/h"}, {"measurement": "CL/F, Geometric Mean", "setting": "[4]; [13]", "result": 3.96, "unit": "L/h"}, {"measurement": "CL/F, Mean (SD)", "setting": "[4]; [13]", "result": "4.12 (1.43) L/h"}, {"measurement": "CL/F, Median", "setting": "[4]; [13]", "result": 3.60, "unit": "L/h"}]}
